# Data reported in patent publication US5876694A, “Azavesamicols” (priority 1997, dated 1999).
# Tested on: vesamicol receptor
# Assay: Ex vivo autoradiography of rat brain
# Type: in vivo, male Wistar rats
# Details: 3 hrs after iv
# Procedure: Ex-vivo Autoradiographic Studies
# Two groups of male Wistar rats (n=2) were used in these experiments. Each animal in the first group received an i.v. injection of (+)-[^125 I]12h (385 uCi in 0.1/ml of 50% aq. EtOH). Similarly, animals in the second group received 330 uCi of (-)-[^125 I]12h (in 0.1 ml of 50% aq. EtOH). After 3 hrs, the animals were sacrificed by decapitation. The brains were carefully removed, embedded in Tissue Tek OCT medium and frozen to […] Twenty micron thick coronal brain slices were subsequently obtained by sectioning rostrocaudally with a Reichert HistoSTAT microtome at -15°. The tissue sections were apposed to Kodak NMC film accompanied by ^125 I-labeled external standards (^125 I-Microscales from Amersham). For delineation of cytoarchitecture, adjacent tissue sections were subjected to Nissl staining.
smiles,measurement,value
"O[C@@H]1CCN(Cc2cccc([125I])c2)C[C@H]1N1CCC(c2ccccc2)CC1 (single isomer, unassigned) [(-)-[^125 I]12h, (+)- and (-)-4-hydroxy-1-(3-[I^125]iodobenzyl)-3-(4-phenyl-piperidinyl)piperidine]","brain regional distribution: cortex, caudate-putamen, hippocampus and red nucleus",high levels of radioactivity
same,levels in cortex compared with caudate-putamen,slightly higher than those observed in the caudate-putamen
